Laboratory results reported in the supplement of paper PMC10307832.

Key:
Test in all cases: relative viability (nuclei count vs DMSO), 5 days (fraction); higher = more cells survive
[1] = system: NCI-H1975
How it was run: (§1)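 A single step with final 0.05% Triton X-100, 1% formaldehyde and 1 ug/ml Hoechst fixed the cells and stained nuclei 5 days after treatment. Lung cancer cell lines in 1536-well plates had been treated by pin tool the day after seeding with one drug alone or a fixed anchor-drug dose plus five library-drug doses (not always all listed) in √10 steps, and nuclei were counted on 4× images. Relative viability is the ratio of nuclei in treated wells to nuclei in vehicle wells, taken as the median of duplicate plates.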

[2] = system: NCI-H1437
How it was run: as §1

[3] = system: NCI-H23
How it was run: as §1

[4] = system: CAL-12T
How it was run: as §1

[5] = system: NCI-H727
How it was run: as §1

[6] = system: HCC-827
How it was run: as §1

[7] = system: NCI-H460
How it was run: as §1

[8] = system: NCI-H1755
How it was run: as §1

[9] = system: HOP-62
How it was run: as §1

[10] = system: HCC-366
How it was run: as §1

[11] = system: HARA
How it was run: as §1

[12] = system: A-427
How it was run: as §1

[13] = system: LCLC-103H
How it was run: as §1

[14] = system: NCI-H1355
How it was run: as §1

[15] = system: NCI-H1915
How it was run: as §1

[16] = system: NCI-H1395
How it was run: as §1

[17] = system: EMC-BAC-2
How it was run: as §1

[18] = system: NCI-H1792
How it was run: as §1

[19] = system: SK-LU-1
How it was run: as §1

[20] = system: COR-L 105
How it was run: as §1

[21] = system: NCI-H2009
How it was run: as §1

[22] = system: SW 1573
How it was run: as §1

O=C(O)c1ccc(-c2c[nH]c3ncc(-c4ccccc4)cc23)cc1C1CCCC1 + NC(=O)Nc1cc(-c2cccc(F)c2)sc1C(=O)N[C@H]1CCCNC1 [AZD7762] (partner 0.2 µM)
relative viability ([1]; first compound 0.04 µM): 0.738 | relative viability ([1]; first compound 0.1265 µM): 0.793 | relative viability ([1]; first compound 0.4 µM): 0.676 | relative viability ([1]; first compound 1.265 µM): 0.728 | relative viability ([2]; first compound 0.04 µM): 1.15 | relative viability ([2]; first compound 0.1265 µM): 1.21 | relative viability ([2]; first compound 0.4 µM): 1.15 | relative viability ([2]; first compound 1.265 µM): 0.934 | relative viability ([3]; first compound 0.04 µM): 0.218 | relative viability ([3]; first compound 0.1265 µM): 0.297 | relative viability ([3]; first compound 0.4 µM): 0.237 | relative viability ([3]; first compound 1.265 µM): 0.328 | relative viability ([4]; first compound 0.04 µM): 0.632 | relative viability ([4]; first compound 0.1265 µM): 0.698 | relative viability ([4]; first compound 0.4 µM): 0.629 | relative viability ([4]; first compound 1.265 µM): 0.671 | relative viability ([5]; first compound 0.04 µM): 0.459 | relative viability ([5]; first compound 0.1265 µM): 0.672 | relative viability ([5]; first compound 0.4 µM): 0.679 | relative viability ([5]; first compound 1.265 µM): 0.612 | relative viability ([6]; first compound 0.04 µM): 0.168 | relative viability ([6]; first compound 0.1265 µM): 0.191 | relative viability ([6]; first compound 0.4 µM): 0.242 | relative viability ([6]; first compound 1.265 µM): 0.203 | relative viability ([7]; first compound 0.04 µM): 0.625 | relative viability ([7]; first compound 0.1265 µM): 0.822 | relative viability ([7]; first compound 0.4 µM): 0.886 | relative viability ([7]; first compound 1.265 µM): 0.794 | relative viability ([8]; first compound 0.04 µM): 0.488 | relative viability ([8]; first compound 0.1265 µM): 0.521 | relative viability ([8]; first compound 0.4 µM): 0.547 | relative viability ([8]; first compound 1.265 µM): 0.523 | relative viability ([9]; first compound 0.04 µM): 0.618 | relative viability ([9]; first compound 0.1265 µM): 0.795 | relative viability ([9]; first compound 0.4 µM): 0.637 | relative viability ([9]; first compound 1.265 µM): 0.674 | relative viability ([10]; first compound 0.04 µM): 0.274 | relative viability ([10]; first compound 0.1265 µM): 0.413 | relative viability ([10]; first compound 0.4 µM): 0.399 | relative viability ([10]; first compound 1.265 µM): 0.43 | relative viability ([11]; first compound 0.04 µM): 0.4 | relative viability ([11]; first compound 0.1265 µM): 0.596 | relative viability ([11]; first compound 0.4 µM): 0.385 | relative viability ([11]; first compound 1.265 µM): 0.554 | relative viability ([12]; first compound 0.04 µM): 0.826 | relative viability ([12]; first compound 0.1265 µM): 0.911 | relative viability ([12]; first compound 0.4 µM): 0.893 | relative viability ([12]; first compound 1.265 µM): 0.726 | relative viability ([13]; first compound 0.04 µM): 0.832 | relative viability ([13]; first compound 0.1265 µM): 0.822 | relative viability ([13]; first compound 0.4 µM): 0.846 | relative viability ([13]; first compound 1.265 µM): 0.759 | relative viability ([14]; first compound 0.04 µM): 0.729 | relative viability ([14]; first compound 0.1265 µM): 0.912 | relative viability ([14]; first compound 0.4 µM): 0.856 | relative viability ([14]; first compound 1.265 µM): 0.703 | relative viability ([15]; first compound 0.04 µM): 0.681 | relative viability ([15]; first compound 0.1265 µM): 0.64 | relative viability ([15]; first compound 0.4 µM): 0.77 | relative viability ([15]; first compound 1.265 µM): 0.764 | relative viability ([16]; first compound 0.04 µM): 0.416 | relative viability ([16]; first compound 0.1265 µM): 0.416 | relative viability ([16]; first compound 0.4 µM): 0.409 | relative viability ([16]; first compound 1.265 µM): 0.462 | relative viability ([17]; first compound 0.04 µM): 1.1 | relative viability ([17]; first compound 0.1265 µM): 1.38 | relative viability ([17]; first compound 0.4 µM): 1.23 | relative viability ([17]; first compound 1.265 µM): 0.981 | relative viability ([18]; first compound 0.04 µM): 0.673 | relative viability ([18]; first compound 0.1265 µM): 0.959 | relative viability ([18]; first compound 0.4 µM): 0.94 | relative viability ([18]; first compound 1.265 µM): 0.634

O=C(O)c1ccc(-c2c[nH]c3ncc(-c4ccccc4)cc23)cc1C1CCCC1 + Nc1ncn([C@H]2C[C@H](O)[C@@H](CO)O2)c(=O)n1 [Decitabine] (partner 2 µM)
relative viability ([19]; first compound 0.04 µM): 0.633 | relative viability ([19]; first compound 0.1265 µM): 0.587 | relative viability ([19]; first compound 0.4 µM): 0.592 | relative viability ([19]; first compound 1.265 µM): 0.508 | relative viability ([20]; first compound 0.04 µM): 0.68 | relative viability ([20]; first compound 0.1265 µM): 0.62 | relative viability ([20]; first compound 0.4 µM): 0.703 | relative viability ([20]; first compound 1.265 µM): 0.72 | relative viability ([1]; first compound 0.04 µM): 0.393 | relative viability ([1]; first compound 0.1265 µM): 0.447 | relative viability ([1]; first compound 0.4 µM): 0.554 | relative viability ([1]; first compound 1.265 µM): 0.376 | relative viability ([2]; first compound 0.04 µM): 0.533 | relative viability ([2]; first compound 0.1265 µM): 0.572 | relative viability ([2]; first compound 0.4 µM): 0.517 | relative viability ([2]; first compound 1.265 µM): 0.336 | relative viability ([3]; first compound 0.04 µM): 0.329 | relative viability ([3]; first compound 0.1265 µM): 0.256 | relative viability ([3]; first compound 0.4 µM): 0.29 | relative viability ([3]; first compound 1.265 µM): 0.251 | relative viability ([5]; first compound 0.04 µM): 0.77 | relative viability ([5]; first compound 0.1265 µM): 0.848 | relative viability ([5]; first compound 0.4 µM): 0.818 | relative viability ([5]; first compound 1.265 µM): 0.788 | relative viability ([6]; first compound 0.04 µM): 0.263 | relative viability ([6]; first compound 0.1265 µM): 0.316 | relative viability ([6]; first compound 0.4 µM): 0.273 | relative viability ([6]; first compound 1.265 µM): 0.337 | relative viability ([7]; first compound 0.04 µM): 0.521 | relative viability ([7]; first compound 0.1265 µM): 0.531 | relative viability ([7]; first compound 0.4 µM): 0.468 | relative viability ([7]; first compound 1.265 µM): 0.459 | relative viability ([8]; first compound 0.04 µM): 0.699 | relative viability ([8]; first compound 0.1265 µM): 0.753 | relative viability ([8]; first compound 0.4 µM): 0.713 | relative viability ([8]; first compound 1.265 µM): 0.705 | relative viability ([9]; first compound 0.04 µM): 0.166 | relative viability ([9]; first compound 0.1265 µM): 0.241 | relative viability ([9]; first compound 0.4 µM): 0.203 | relative viability ([9]; first compound 1.265 µM): 0.239 | relative viability ([21]; first compound 0.04 µM): 0.411 | relative viability ([21]; first compound 0.1265 µM): 0.415 | relative viability ([21]; first compound 0.4 µM): 0.398 | relative viability ([21]; first compound 1.265 µM): 0.347 | relative viability ([10]; first compound 0.04 µM): 0.336 | relative viability ([10]; first compound 0.1265 µM): 0.342 | relative viability ([10]; first compound 0.4 µM): 0.363 | relative viability ([10]; first compound 1.265 µM): 0.3 | relative viability ([11]; first compound 0.04 µM): 0.372 | relative viability ([11]; first compound 0.1265 µM): 0.643 | relative viability ([11]; first compound 0.4 µM): 0.477 | relative viability ([11]; first compound 1.265 µM): 0.354 | relative viability ([12]; first compound 0.04 µM): 0.59 | relative viability ([12]; first compound 0.1265 µM): 0.594 | relative viability ([12]; first compound 0.4 µM): 0.5 | relative viability ([12]; first compound 1.265 µM): 0.475 | relative viability ([13]; first compound 0.04 µM): 0.767 | relative viability ([13]; first compound 0.1265 µM): 0.789 | relative viability ([13]; first compound 0.4 µM): 0.746 | relative viability ([13]; first compound 1.265 µM): 0.667 | relative viability ([22]; first compound 0.04 µM): 0.403 | relative viability ([22]; first compound 0.1265 µM): 0.546 | relative viability ([22]; first compound 0.4 µM): 0.505 | relative viability ([22]; first compound 1.265 µM): 0.407 | relative viability ([14]; first compound 0.04 µM): 0.337 | relative viability ([14]; first compound 0.1265 µM): 0.331 | relative viability ([14]; first compound 0.4 µM): 0.408 | relative viability ([14]; first compound 1.265 µM): 0.307 | relative viability ([15]; first compound 0.04 µM): 0.241 | relative viability ([15]; first compound 0.1265 µM): 0.229 | relative viability ([15]; first compound 0.4 µM): 0.259 | relative viability ([15]; first compound 1.265 µM): 0.251 | relative viability ([16]; first compound 0.04 µM): 0.727 | relative viability ([16]; first compound 0.1265 µM): 0.697 | relative viability ([16]; first compound 0.4 µM): 0.731 | relative viability ([16]; first compound 1.265 µM): 0.728 | relative viability ([17]; first compound 0.04 µM): 0.948 | relative viability ([17]; first compound 0.1265 µM): 1.06 | relative viability ([17]; first compound 0.4 µM): 1.01 | relative viability ([17]; first compound 1.265 µM): 0.909 | relative viability ([18]; first compound 0.04 µM): 0.515 | relative viability ([18]; first compound 0.1265 µM): 0.51 | relative viability ([18]; first compound 0.4 µM): 0.543 | relative viability ([18]; first compound 1.265 µM): 0.457
